Laboratory results published in paper PMC11352961, “Peptide dendrimers transfecting CRISPR/Cas9 plasmid DNA: optimization and mechanism” (RSC Chemical Biology, 2024).
Bridge positions count the residues as written; N and C are the ends. Square brackets hold non-standard residues; d marks the D form. Side chains are listed from the residue outwards. Peptide text beside a SMILES is read from it. I, II: the chains in the order shown. * marks the point of attachment. Stearoyl = CCCCCCCCCCCCCCCCCC(=O)*; Palmitoyl = CCCCCCCCCCCCCCCC(=O)*

Legend:
HeLa cells = assay: Cell viability by PrestoBlue assay after transfection, HeLa cells; assay type: cell-based; conditions: 4 h
HEK293 cells = assay: Cell viability by PrestoBlue assay after transfection, HEK cells; assay type: cell-based; conditions: 4 h

| Structure (SMILES) | % viability HeLa cells (HeLa cells) | % viability HEK cells (HEK293 cells) |
| --- | --- | --- |
| CC(C)C[C@@H](NC(=O)[C@@H](CC(C)C)NC(=O)[C@@H](CC(C)C)NC(=O)[C@@H](CC(C)C)NC(=O)[C@@H](CC(C)C)NC(=O)[C@@H](CCCCNC(=O)[C@@H](CC(C)C)NC(=O)[C@@H](CCCCN)NC(=O)[C@@H](CCCCNC(=O)[C@@H](CC(C)C)NC(=O)[C@@H](CCCCN)NC(=O)[C@@H](CCCCNC(=O)[C@@H](CC(C)C)NC(=O)[C@H](N)CCCCN)NC(=O)[C@@H](CC(C)C)NC(=O)[C@H](N)CCCCN)NC(=O)[C@@H](CC(C)C)NC(=O)[C@@H](CCCCN)NC(=O)[C@@H](CCCCNC(=O)[C@@H](CC(C)C)NC(=O)[C@H](N)CCCCN)NC(=O)[C@@H](CC(C)C)NC(=O)[C@H](N)CCCCN)NC(=O)[C@@H](CC(C)C)NC(=O)[C@@H](CCCCN)NC(=O)[C@@H](CCCCNC(=O)[C@@H](CC(C)C)NC(=O)[C@@H](CCCCN)NC(=O)[C@@H](CCCCNC(=O)[C@@H](CC(C)C)NC(=O)[C@H](N)CCCCN)NC(=O)[C@@H](CC(C)C)NC(=O)[C@H](N)CCCCN)NC(=O)[C@@H](CC(C)C)NC(=O)[C@@H](CCCCN)NC(=O)[C@@H](CCCCNC(=O)[C@@H](CC(C)C)NC(=O)[C@H](N)CCCCN)NC(=O)[C@@H](CC(C)C)NC(=O)[C@H](N)CCCCN)C(N)=O [Z28] (I: H-[dK][dL][dK]([dL-dK])[dK][dL][dK][dK][dL][dK][dL][dL][dL][dL][dL]-NH2 / II: H-[dK][dL][dK]([dL-dK])[dK][dL][dK][dK][dL] / III: H-[dK][dL][dK]([dL-dK])[dK][dL] / IV: H-[dK][dL][dK]([dL-dK])[dK][dL]; amide I:6-IV:C, I:9-II:C, II:6-III:C) | 101 ± 7% | 103 ± 0.2% |
| CCCCCCCCCCCCCCCCCC(=O)NCCCC[C@@H](NC(=O)[C@@H](CCCCNC(=O)[C@@H](CC(C)C)NC(=O)[C@@H](CC(C)C)NC(=O)[C@@H](CCCCNC(=O)[C@@H](CC(C)C)NC(=O)[C@@H](CC(C)C)NC(=O)[C@@H](CCCCNC(=O)[C@@H](CC(C)C)NC(=O)[C@H](N)CCCCN)NC(=O)[C@@H](CC(C)C)NC(=O)[C@H](N)CCCCN)NC(=O)[C@@H](CC(C)C)NC(=O)[C@@H](CC(C)C)NC(=O)[C@@H](CCCCNC(=O)[C@@H](CC(C)C)NC(=O)[C@H](N)CCCCN)NC(=O)[C@@H](CC(C)C)NC(=O)[C@H](N)CCCCN)NC(=O)[C@@H](CC(C)C)NC(=O)[C@@H](CC(C)C)NC(=O)[C@@H](CCCCNC(=O)[C@@H](CC(C)C)NC(=O)[C@@H](CC(C)C)NC(=O)[C@@H](CCCCNC(=O)[C@@H](CC(C)C)NC(=O)[C@H](N)CCCCN)NC(=O)[C@@H](CC(C)C)NC(=O)[C@H](N)CCCCN)NC(=O)[C@@H](CC(C)C)NC(=O)[C@@H](CC(C)C)NC(=O)[C@@H](CCCCNC(=O)[C@@H](CC(C)C)NC(=O)[C@H](N)CCCCN)NC(=O)[C@@H](CC(C)C)NC(=O)[C@H](N)CCCCN)C(N)=O [Z32] (I: H-[dK][dL][dK]([dL-dK])[dL][dL][dK][dL][dL][dK][dK](Stearoyl)-NH2 / II: H-[dK][dL][dK]([dL-dK])[dL][dL][dK][dL][dL] / III: H-[dK][dL][dK]([dL-dK])[dL][dL] / IV: H-[dK][dL][dK]([dL-dK])[dL][dL]; amide I:6-IV:C, I:9-II:C, II:6-III:C) | 97 ± 4% | 111 ± 1% |
| CCCCCCCCCCCCCCCC(=O)NCCCC[C@H](NC(=O)[C@H](CCCCNC(=O)[C@H](CC(C)C)NC(=O)[C@H](CCCCN)NC(=O)[C@H](CCCCNC(=O)[C@H](CC(C)C)NC(=O)[C@H](CCCCN)NC(=O)[C@H](CCCCNC(=O)[C@H](CC(C)C)NC(=O)[C@@H](N)CCCCN)NC(=O)[C@H](CC(C)C)NC(=O)[C@@H](N)CCCCN)NC(=O)[C@H](CC(C)C)NC(=O)[C@H](CCCCN)NC(=O)[C@H](CCCCNC(=O)[C@H](CC(C)C)NC(=O)[C@@H](N)CCCCN)NC(=O)[C@H](CC(C)C)NC(=O)[C@@H](N)CCCCN)NC(=O)[C@H](CC(C)C)NC(=O)[C@H](CCCCN)NC(=O)[C@H](CCCCNC(=O)[C@H](CC(C)C)NC(=O)[C@H](CCCCN)NC(=O)[C@H](CCCCNC(=O)[C@H](CC(C)C)NC(=O)[C@@H](N)CCCCN)NC(=O)[C@H](CC(C)C)NC(=O)[C@@H](N)CCCCN)NC(=O)[C@H](CC(C)C)NC(=O)[C@H](CCCCN)NC(=O)[C@H](CCCCNC(=O)[C@H](CC(C)C)NC(=O)[C@@H](N)CCCCN)NC(=O)[C@H](CC(C)C)NC(=O)[C@@H](N)CCCCN)C(N)=O [Z4] (I: H-KLK([Leu-Lys])KLKKLKK(Palmitoyl)-NH2 / II: H-KLK([Leu-Lys])KLKKL / III: H-KLK([Leu-Lys])KL / IV: H-KLK([Leu-Lys])KL; amide I:6-IV:C, I:9-II:C, II:6-III:C) | 88 ± 11% | 89 ± 11% |
| CCCCCCCCCCCCCCCCCC(=O)NCCCC[C@H](NC(=O)[C@H](CCCCNC(=O)CCCCCCCCCCCCCCCCC)NC(=O)[C@H](CCCCNC(=O)[C@H](CC(C)C)NC(=O)[C@H](CCCCN)NC(=O)[C@H](CCCCNC(=O)[C@H](CC(C)C)NC(=O)[C@H](CCCCN)NC(=O)[C@H](CCCCNC(=O)[C@H](CC(C)C)NC(=O)[C@@H](N)CCCCN)NC(=O)[C@H](CC(C)C)NC(=O)[C@@H](N)CCCCN)NC(=O)[C@H](CC(C)C)NC(=O)[C@H](CCCCN)NC(=O)[C@H](CCCCNC(=O)[C@H](CC(C)C)NC(=O)[C@@H](N)CCCCN)NC(=O)[C@H](CC(C)C)NC(=O)[C@@H](N)CCCCN)NC(=O)[C@H](CC(C)C)NC(=O)[C@H](CCCCN)NC(=O)[C@H](CCCCNC(=O)[C@H](CC(C)C)NC(=O)[C@H](CCCCN)NC(=O)[C@H](CCCCNC(=O)[C@H](CC(C)C)NC(=O)[C@@H](N)CCCCN)NC(=O)[C@H](CC(C)C)NC(=O)[C@@H](N)CCCCN)NC(=O)[C@H](CC(C)C)NC(=O)[C@H](CCCCN)NC(=O)[C@H](CCCCNC(=O)[C@H](CC(C)C)NC(=O)[C@@H](N)CCCCN)NC(=O)[C@H](CC(C)C)NC(=O)[C@@H](N)CCCCN)C(N)=O [Z2] (I: H-KLK([Leu-Lys])KLKKLKK(Stearoyl)K(Stearoyl)-NH2 / II: H-KLK([Leu-Lys])KLKKL / III: H-KLK([Leu-Lys])KL / IV: H-KLK([Leu-Lys])KL; amide I:6-IV:C, I:9-II:C, II:6-III:C) | 47 ± 3% | 79 ± 11% |
| CCCCCCCCCCCCCCCCCC(=O)NCCCC[C@H](NC(=O)[C@H](CCCCNC(=O)[C@H](CC(C)C)NC(=O)[C@H](CCCCN)NC(=O)[C@H](CCCCNC(=O)[C@H](CC(C)C)NC(=O)[C@H](CCCCN)NC(=O)[C@H](CCCCNC(=O)[C@H](CC(C)C)NC(=O)[C@@H](N)CCCCN)NC(=O)[C@H](CC(C)C)NC(=O)[C@@H](N)CCCCN)NC(=O)[C@H](CC(C)C)NC(=O)[C@H](CCCCN)NC(=O)[C@H](CCCCNC(=O)[C@H](CC(C)C)NC(=O)[C@@H](N)CCCCN)NC(=O)[C@H](CC(C)C)NC(=O)[C@@H](N)CCCCN)NC(=O)[C@H](CC(C)C)NC(=O)[C@H](CCCCN)NC(=O)[C@H](CCCCNC(=O)[C@H](CC(C)C)NC(=O)[C@H](CCCCN)NC(=O)[C@H](CCCCNC(=O)[C@H](CC(C)C)NC(=O)[C@@H](N)CCCCN)NC(=O)[C@H](CC(C)C)NC(=O)[C@@H](N)CCCCN)NC(=O)[C@H](CC(C)C)NC(=O)[C@H](CCCCN)NC(=O)[C@H](CCCCNC(=O)[C@H](CC(C)C)NC(=O)[C@@H](N)CCCCN)NC(=O)[C@H](CC(C)C)NC(=O)[C@@H](N)CCCCN)C(=O)N[C@@H](C)C(N)=O [Z15] (I: H-KLK([Leu-Lys])KLKKLKK(Stearoyl)A-NH2 / II: H-KLK([Leu-Lys])KLKKL / III: H-KLK([Leu-Lys])KL / IV: H-KLK([Leu-Lys])KL; amide I:6-IV:C, I:9-II:C, II:6-III:C) | 107 ± 10% | 71 ± 7% |
| CCCCCCCCCCCCCCCC(=O)NCCCC[C@@H](NC(=O)[C@@H](CCCCNC(=O)[C@@H](CC(C)C)NC(=O)[C@@H](CCCNC(=N)N)NC(=O)[C@@H](CCCCNC(=O)[C@@H](CC(C)C)NC(=O)[C@@H](CCCNC(=N)N)NC(=O)[C@@H](CCCCNC(=O)[C@@H](CC(C)C)NC(=O)[C@H](N)CCCNC(=N)N)NC(=O)[C@@H](CC(C)C)NC(=O)[C@H](N)CCCNC(=N)N)NC(=O)[C@@H](CC(C)C)NC(=O)[C@@H](CCCNC(=N)N)NC(=O)[C@@H](CCCCNC(=O)[C@@H](CC(C)C)NC(=O)[C@H](N)CCCNC(=N)N)NC(=O)[C@@H](CC(C)C)NC(=O)[C@H](N)CCCNC(=N)N)NC(=O)[C@@H](CC(C)C)NC(=O)[C@@H](CCCNC(=N)N)NC(=O)[C@@H](CCCCNC(=O)[C@@H](CC(C)C)NC(=O)[C@@H](CCCNC(=N)N)NC(=O)[C@@H](CCCCNC(=O)[C@@H](CC(C)C)NC(=O)[C@H](N)CCCNC(=N)N)NC(=O)[C@@H](CC(C)C)NC(=O)[C@H](N)CCCNC(=N)N)NC(=O)[C@@H](CC(C)C)NC(=O)[C@@H](CCCNC(=N)N)NC(=O)[C@@H](CCCCNC(=O)[C@@H](CC(C)C)NC(=O)[C@H](N)CCCNC(=N)N)NC(=O)[C@@H](CC(C)C)NC(=O)[C@H](N)CCCNC(=N)N)C(N)=O [Z33] (I: H-[dR][dL][dK]([dL-dR])[dR][dL][dK][dR][dL][dK][dK](Palmitoyl)-NH2 / II: H-[dR][dL][dK]([dL-dR])[dR][dL][dK][dR][dL] / III: H-[dR][dL][dK]([dL-dR])[dR][dL] / IV: H-[dR][dL][dK]([dL-dR])[dR][dL]; amide I:6-IV:C, I:9-II:C, II:6-III:C) | 93 ± 6% | 84 ± 1% |
